According to PMC11801377, “A uniquely efficacious type of CFTR corrector with complementary mode of action” (Science Advances, 2024):

Target: F508del-CFTR (Homo sapiens, UniProt P13569, DEL508-508)
Assay: Halide-sensitive YFP quenching assay in U2OS-F508del-CFTR-YFP cells
Assay type: cell-based
Parameters: host or cells: U2OS (PathHunter U2OS-F508del-CFTR MEM-EA)
Conditions: overnight treatment; acute forskolin and IVA 2 nM
Description: U2OS-F508del-CFTR cells expressing Topaz-YFP F46L/H148Q/I152L were seeded at 20,000 cells per well into 384-well black clear-bottom plates in 40 μl per well growth medium (Mc COY’s 5A, Gibco, 10% FBS, penicillin/streptomycin), containing the various CFTR correctors at the indicated concentrations. The cells were coincubated with the compounds for 24 hours (37°C, 5% CO2). The next day, plates were washed twice with PBS^+ (55 μl per well; PBS containing 0.9 mM Ca^2+ and 0.5 mM Mg^2+). PBS^+ was fully removed, and cells were supplemented with 15 μl PBS^+. Then, 5 μl of 4× concentrated stocks of IVA or vehicle in dilution buffer [PBS^+, 0.1 μM forskolin, and 0.2% bovine serum albumin (fatty acid free) (pH 7.4)] were added and incubated for 30 min in the dark. For experiments with I-172 (Sigma- Aldrich), the inhibitor was added to the mix with either IVA or vehicle to reach a final concentration in cells of 20 μM. Then, plates were transferred to the FLIPR Tetra (fluorescence imaging plate reader; Molecular Devices: excitation: 470 to 495 nm; emission: 526 to 585 nm), baseline fluorescence reading of the YFP signal was performed for 6 s (10 × 0.6 s intervals) after which 25 μl of iodide buffer [137 mM NaI, 2.7 mM KCl, 1.5 mM KH2PO4, 8.1 mM Na2HPO4, 1 mM CaCl2, and 0.5 mM MgCl2 (pH 7.4)] was added, and fluorescence reading was continued for 70 s (50 × 0.6 s intervals; 20 x 2 s intervals) to assess YFP quenching through CFTR-mediated iodide influx. For analysis, fluorescence traces were aligned and normalized at the last time point before iodide addition (normalized fluorescence = 1). Normalized fluorescence values obtained 20 s after the beginning of the assay were used to assess the degree of YFP quenching, i.e., CFTR function (see fig. S1J). […] Then, plates were read and analyzed as above. […] Then, plates were transferred to the FLIPR Tetra and read and analyzed as above.

Sequence of F508del-CFTR (P13569 with tags, fused parts or gaps DEL508-508): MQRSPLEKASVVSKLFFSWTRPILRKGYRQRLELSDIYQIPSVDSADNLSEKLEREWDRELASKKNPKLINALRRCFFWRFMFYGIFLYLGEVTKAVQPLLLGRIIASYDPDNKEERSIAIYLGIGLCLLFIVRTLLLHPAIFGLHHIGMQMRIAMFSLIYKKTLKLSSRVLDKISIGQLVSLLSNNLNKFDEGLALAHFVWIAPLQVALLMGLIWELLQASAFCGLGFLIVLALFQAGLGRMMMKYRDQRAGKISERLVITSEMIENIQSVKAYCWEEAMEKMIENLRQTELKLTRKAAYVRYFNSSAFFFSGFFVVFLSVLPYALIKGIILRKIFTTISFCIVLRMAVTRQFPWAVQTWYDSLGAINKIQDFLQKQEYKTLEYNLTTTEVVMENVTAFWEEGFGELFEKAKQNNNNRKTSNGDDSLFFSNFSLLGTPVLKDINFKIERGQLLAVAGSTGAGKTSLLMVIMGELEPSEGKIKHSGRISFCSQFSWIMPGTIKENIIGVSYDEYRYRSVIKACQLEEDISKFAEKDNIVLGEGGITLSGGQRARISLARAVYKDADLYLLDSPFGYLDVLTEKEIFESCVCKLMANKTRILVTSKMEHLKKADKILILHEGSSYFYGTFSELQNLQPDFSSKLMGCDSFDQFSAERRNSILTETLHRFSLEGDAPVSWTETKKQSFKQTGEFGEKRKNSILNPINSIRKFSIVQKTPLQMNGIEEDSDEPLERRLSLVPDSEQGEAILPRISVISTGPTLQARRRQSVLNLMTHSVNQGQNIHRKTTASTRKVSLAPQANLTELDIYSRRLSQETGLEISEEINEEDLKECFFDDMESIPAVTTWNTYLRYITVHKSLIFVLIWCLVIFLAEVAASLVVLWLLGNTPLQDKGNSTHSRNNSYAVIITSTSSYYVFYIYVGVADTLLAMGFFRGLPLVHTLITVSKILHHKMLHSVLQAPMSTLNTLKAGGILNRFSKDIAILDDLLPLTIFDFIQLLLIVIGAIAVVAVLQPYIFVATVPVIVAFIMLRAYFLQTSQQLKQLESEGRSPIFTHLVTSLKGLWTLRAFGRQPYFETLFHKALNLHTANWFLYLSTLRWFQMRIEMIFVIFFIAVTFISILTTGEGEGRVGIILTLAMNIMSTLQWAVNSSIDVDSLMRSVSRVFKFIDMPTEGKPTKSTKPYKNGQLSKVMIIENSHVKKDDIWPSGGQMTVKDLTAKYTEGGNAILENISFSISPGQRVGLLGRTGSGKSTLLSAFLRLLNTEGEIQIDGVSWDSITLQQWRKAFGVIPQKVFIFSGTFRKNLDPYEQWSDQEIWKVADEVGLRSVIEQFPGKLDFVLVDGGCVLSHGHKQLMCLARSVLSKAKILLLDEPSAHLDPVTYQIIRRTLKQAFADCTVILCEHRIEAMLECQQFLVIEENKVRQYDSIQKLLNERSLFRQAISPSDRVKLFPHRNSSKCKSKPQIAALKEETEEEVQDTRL

F508del-CFTR function (YFP quenching): strongly increased F508del-CFTR function
SMILES: COc1cc(CCNC(=O)C2CC(=O)N(C)C(CC(C)C)C(=O)N3CCCCC3C(=O)NC(Cc3ccccc3)COc3ccc4ncc(F)cc4c3C(=O)N2)on1 (stereo not shown) [IDOR-3]
